Data on 18 compounds can be found in patent US20250388553A1 (Incyte Corporation, priority 2018, published 2025).

Where a name gives a salt, the structure may show the parent alone. Read-outs that look alike come from different tables or passages of the source.

Test [1] deals with PI3Kδ (p1106/p85a) Recombinant Human Protein (Homo sapiens (Human), UniProt O00329). In words: PI3Kδ scintillation proximity assay. The test is classed as biochemical.
Test [2] relates to Phosphorylated Ribosomal Protein S6 (RPS6) in THP-1 cells. Description: THP-1 RPS6 ELISA assay. The test is classed as cell-based, Human. An excerpt: Example A. THP-1 RPS6 ELISA Assay
To measure the Phosphorylated Ribosomal Protein S6 (RPS6) in cell lysates, THP-1 cells (Human Acute Monocytic Leukemia) are purchased from ATCC (Manassas, VA) and maintained in RPMI with 10% FBS (Gibco/Life Technologies, Carlsbad, CA). For the assay, THP-1 cells are serum starved overnight in RPMI, then plated in RPMI (2×10^5 cells/well in […]) into 96-well flat-bottom tissue culture treated plates (Corning, Corning, NY), in the presence or absence of a concentration range of test compounds. Covered plates are incubated for 2 hours at 37° C., 5% CO2 then treated with or without 10 nM MCP-1(MYBioSource, San Diego, CA) for 15 minutes at 37° C., 5% CO2. Plates are centrifuged at 1600 RPM and supernatants are removed. Cells are lysed in Lysis Buffer (Cell Signaling, Danvers, MA) with Protease Inhibitor (Calbiochem/EMD, Germany), PMSF (Sigma, St Louis MO), HALTS (Thermo Fisher, Rockford, IL) for 30 min on wet ice. Cell lysates are frozen at −80° C. before testing. The lysates are tested in the Human/Mouse/Rat Phospho-RPS6 ELISA (R&D Systems, Inc. Minn, MN). The plate is measured using a microplate reader (SpectraMax M5—Molecular Devices, LLC Sunnyvale, CA) set to 450 nm with a wavelength correction of 540. IC50 determination is performed by fitting the curve of inhibitor percent inhibition versus the log of the inhibitor concentration using the GraphPad Prism 5.0 software.
The compounds of the Examples were tested in the assays described in Examples A, B and C and found to have the IC50s are shown in Tables A1, A2, A3 and A4.

In test [3] the target is PI3Kγ (p110γ) Recombinant Human Protein (Homo sapiens (Human), UniProt P48736). Description: PI3K-γ scintillation proximity assay. The test is classed as biochemical.
[4] abbreviates: Table A1, scintillation proximity assay, recombinant human PI3Kδ.
Setting [5] is: Table A1, THP-1 cells, 10 nM MCP-1, phospho-RPS6 ELISA, read-out: PI3Kγ_THP1_RPS6_ELISA IC50.
Where [6] appears, read: Table A1, scintillation proximity assay, recombinant human p110γ.
[7] abbreviates: Table A3, scintillation proximity assay, recombinant human PI3Kδ.
Where [8] appears, read: Homo sapiens, Table A3, THP-1 cells, 10 nM MCP-1, phospho-RPS6 ELISA, read-out: PI3Kγ_THP1_RPS6_ELISA IC50.
The mark [9] stands for this setting: Table A3, scintillation proximity assay, recombinant human p110γ.
The mark [10] stands for this setting: Table A4, scintillation proximity assay, recombinant human PI3Kδ.
Setting [11] is: Homo sapiens, Table A4, THP-1 cells, 10 nM MCP-1, phospho-RPS6 ELISA, read-out: PI3Kγ_THP1_RPS6_ELISA IC50.
Where [12] appears, read: Table A4, scintillation proximity assay, recombinant human p110γ.
Setting [13] is: Table A2, scintillation proximity assay, recombinant human PI3Kδ.
Where [14] appears, read: Homo sapiens, Table A2, THP-1 cells, 10 nM MCP-1, phospho-RPS6 ELISA, read-out: PI3Kγ_THP1_RPS6_ELISA IC50.
Setting [15] is: Table A2, scintillation proximity assay, recombinant human p110γ.
Where [16] appears, read: Homo sapiens, Table A1, THP-1 cells, 10 nM MCP-1, phospho-RPS6 ELISA, read-out: PI3Kγ_THP1_RPS6_ELISA IC50.

Sequence of PI3Kδ (p1106/p85a) Recombinant Human Protein (O00329 whole entry): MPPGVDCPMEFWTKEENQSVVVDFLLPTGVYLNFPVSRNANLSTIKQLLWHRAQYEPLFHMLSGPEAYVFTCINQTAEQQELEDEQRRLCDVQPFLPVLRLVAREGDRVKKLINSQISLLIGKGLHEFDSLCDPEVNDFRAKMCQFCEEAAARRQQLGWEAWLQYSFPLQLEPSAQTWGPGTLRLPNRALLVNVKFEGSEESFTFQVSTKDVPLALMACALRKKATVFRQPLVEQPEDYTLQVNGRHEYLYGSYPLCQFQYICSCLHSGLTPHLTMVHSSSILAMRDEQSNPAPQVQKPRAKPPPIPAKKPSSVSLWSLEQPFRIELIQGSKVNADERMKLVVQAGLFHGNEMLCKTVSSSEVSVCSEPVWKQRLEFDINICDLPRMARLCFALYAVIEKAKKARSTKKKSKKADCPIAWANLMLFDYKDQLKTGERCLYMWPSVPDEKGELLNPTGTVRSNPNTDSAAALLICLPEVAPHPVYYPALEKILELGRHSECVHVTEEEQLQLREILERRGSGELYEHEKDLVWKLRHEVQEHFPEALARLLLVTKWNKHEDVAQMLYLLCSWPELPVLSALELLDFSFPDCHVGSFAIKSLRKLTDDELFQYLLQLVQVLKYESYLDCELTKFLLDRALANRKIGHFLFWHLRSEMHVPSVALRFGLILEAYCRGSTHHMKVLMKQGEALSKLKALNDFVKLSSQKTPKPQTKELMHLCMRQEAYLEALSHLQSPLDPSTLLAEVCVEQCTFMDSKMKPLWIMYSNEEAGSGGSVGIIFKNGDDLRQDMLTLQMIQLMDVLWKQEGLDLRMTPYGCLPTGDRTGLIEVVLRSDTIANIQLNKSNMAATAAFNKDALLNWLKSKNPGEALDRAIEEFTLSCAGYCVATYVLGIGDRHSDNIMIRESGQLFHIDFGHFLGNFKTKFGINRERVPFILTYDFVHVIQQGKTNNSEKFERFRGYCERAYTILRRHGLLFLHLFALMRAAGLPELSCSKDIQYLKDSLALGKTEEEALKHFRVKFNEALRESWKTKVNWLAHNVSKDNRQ
Sequence of PI3Kδ (p1106/p85a) Recombinant Human Protein (P27986 whole entry partner): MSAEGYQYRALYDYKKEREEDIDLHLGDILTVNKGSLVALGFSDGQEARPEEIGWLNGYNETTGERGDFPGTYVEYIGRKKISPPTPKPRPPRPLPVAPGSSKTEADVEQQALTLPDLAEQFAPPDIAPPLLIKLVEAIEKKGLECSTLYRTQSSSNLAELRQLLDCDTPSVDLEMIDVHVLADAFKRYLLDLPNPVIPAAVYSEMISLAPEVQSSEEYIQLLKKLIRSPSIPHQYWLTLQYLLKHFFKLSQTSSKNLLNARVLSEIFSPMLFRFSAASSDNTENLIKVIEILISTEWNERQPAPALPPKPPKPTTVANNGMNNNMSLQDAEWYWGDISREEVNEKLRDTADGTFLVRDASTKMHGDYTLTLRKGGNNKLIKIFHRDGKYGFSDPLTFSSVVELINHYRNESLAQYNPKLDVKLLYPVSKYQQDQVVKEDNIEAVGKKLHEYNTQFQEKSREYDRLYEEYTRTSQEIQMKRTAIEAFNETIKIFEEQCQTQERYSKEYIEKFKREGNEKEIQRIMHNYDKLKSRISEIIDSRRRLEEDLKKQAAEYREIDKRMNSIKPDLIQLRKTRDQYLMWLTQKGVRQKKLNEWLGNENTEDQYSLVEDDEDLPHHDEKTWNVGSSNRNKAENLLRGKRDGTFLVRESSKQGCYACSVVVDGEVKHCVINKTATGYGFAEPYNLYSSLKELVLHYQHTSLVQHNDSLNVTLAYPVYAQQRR
Sequence of PI3Kγ (p110γ) Recombinant Human Protein (P48736 whole entry): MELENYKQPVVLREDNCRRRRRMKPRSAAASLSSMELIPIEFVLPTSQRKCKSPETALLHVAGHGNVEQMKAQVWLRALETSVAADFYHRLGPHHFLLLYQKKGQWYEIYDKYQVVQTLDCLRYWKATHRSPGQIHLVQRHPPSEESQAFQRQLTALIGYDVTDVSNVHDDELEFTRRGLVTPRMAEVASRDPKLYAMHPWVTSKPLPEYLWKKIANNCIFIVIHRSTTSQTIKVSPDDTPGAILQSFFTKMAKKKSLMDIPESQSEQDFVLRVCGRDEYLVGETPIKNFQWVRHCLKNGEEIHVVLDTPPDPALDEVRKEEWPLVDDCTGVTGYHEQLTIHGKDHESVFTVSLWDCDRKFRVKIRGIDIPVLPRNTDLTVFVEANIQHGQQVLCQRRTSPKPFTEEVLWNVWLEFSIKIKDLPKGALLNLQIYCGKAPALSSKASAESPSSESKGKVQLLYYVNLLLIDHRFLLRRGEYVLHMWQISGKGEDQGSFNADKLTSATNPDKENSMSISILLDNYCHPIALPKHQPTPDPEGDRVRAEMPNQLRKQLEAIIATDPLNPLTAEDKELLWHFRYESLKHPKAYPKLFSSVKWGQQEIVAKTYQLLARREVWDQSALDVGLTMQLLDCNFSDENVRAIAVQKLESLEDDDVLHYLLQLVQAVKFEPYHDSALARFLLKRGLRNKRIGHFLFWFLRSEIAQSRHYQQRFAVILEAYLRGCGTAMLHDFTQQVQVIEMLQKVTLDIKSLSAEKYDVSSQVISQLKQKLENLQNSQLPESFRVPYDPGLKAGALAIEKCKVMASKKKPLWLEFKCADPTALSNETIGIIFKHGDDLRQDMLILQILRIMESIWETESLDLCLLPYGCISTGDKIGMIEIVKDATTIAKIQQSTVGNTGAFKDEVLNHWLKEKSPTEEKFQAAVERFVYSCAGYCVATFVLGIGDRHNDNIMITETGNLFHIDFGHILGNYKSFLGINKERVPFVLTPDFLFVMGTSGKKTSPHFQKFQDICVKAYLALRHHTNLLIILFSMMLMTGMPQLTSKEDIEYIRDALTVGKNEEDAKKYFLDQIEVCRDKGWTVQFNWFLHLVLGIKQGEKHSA

As for `Cc1ccc(C(O)(C(N)=O)C(F)(F)F)cc1-c1cnc(N)c(C(=O)N[C@H]2CC[C@](C)(O)CC2)n1` (stereo partly drawn) [Example 17, 3-amino-6-(5-(3-amino-1,1,1-trifluoro-2-hydroxy-3-oxopropan-2-yl)-2-methylphenyl)-N-((1r,4r)-4-hydroxy-4-methylcyclohexyl)pyrazine-2-carboxamide trifluoroacetate], the IC50 in test [1] (setting [4]), in test [2] (setting [5]) and in test [3] (setting [6]) was less than 100 nM throughout.
For the compound `Cc1ncc(-c2nc(-c3cc(C(O)(C(N)=O)C(F)(F)F)ccc3C)cnc2N)o1` (stereo not drawn) [Example 70, 2-(3-(5-amino-6-(2-methyloxazol-5-yl)pyrazin-2-yl)-4-methylphenyl)-3,3,3-trifluoro-2-hydroxypropanamide trifluoroacetate], the IC50 in test [1] (setting [7]), in test [2] (setting [8]) and in test [3] (setting [9]) was less than 100 nM throughout.
Take `Cc1ccc(C(O)(C(N)=O)C(F)(F)F)cc1-c1cnc(N)c(-c2ccc(C(C)(C)O)cc2)n1` (stereo not drawn) [Example 91, 2-(3-(5-amino-6-(4-(2-hydroxypropan-2-yl)phenyl)pyrazin-2-yl)-4-methylphenyl)-3,3,3-trifluoro-2-hydroxypropanamide trifluoroacetate]: the IC50 in test [1] (setting [7]), in test [2] (setting [8]) and in test [3] (setting [9]) was less than 100 nM in each case.
As to `Cc1ccc(C(O)(C(N)=O)C(F)(F)F)cc1-c1cnc(N)c(C(=O)N[C@H]2CC[C@H](C(C)(C)O)CC2)n1` (stereo partly drawn) [Example 19, 3-amino-6-(5-(3-amino-1,1,1-trifluoro-2-hydroxy-3-oxopropan-2-yl)-2-methylphenyl)-N-((1r,4r)-4-(2-hydroxypropan-2-yl)cyclohexyl)pyrazine-2-carboxamide trifluoroacetate], the IC50 in test [1] (setting [4]), in test [2] (setting [5]) and in test [3] (setting [6]) was less than 100 nM throughout.
As to `Cc1ccc(C(O)(C(N)=O)C(F)(F)F)cc1-c1cnc(N)c(-c2cnn(C)c2)n1` (stereo not drawn) [Example 71, 2-(3-(5-amino-6-(1-methyl-1H-pyrazol-4-yl)pyrazin-2-yl)-4-methylphenyl)-3,3,3-trifluoro-2-hydroxypropanamide trifluoroacetate], the IC50 in test [1] (setting [7]), in test [2] (setting [8]) and in test [3] (setting [9]) was less than 100 nM in each case.
Regarding `Cc1ccc(C(O)(C(N)=O)C(F)(F)F)cc1-c1cnc(N)c(-c2cnn(C)n2)n1` (stereo not drawn) [Example 73, 2-(3-(5-amino-6-(2-methyl-2H-1,2,3-triazol-4-yl)pyrazin-2-yl)-4-methylphenyl)-3,3,3-trifluoro-2-hydroxypropanamide trifluoroacetate], the IC50 in test [1] (setting [7]), in test [2] (setting [8]) and in test [3] (setting [9]) was less than 100 nM in each case.
Regarding `CNC(=O)c1ccc(-c2nc(-c3cc(C(O)(C(N)=O)C(F)(F)F)ccc3C)cnc2N)cn1` (stereo not drawn) [Example 80, 5-(3-amino-6-(5-(3-amino-1,1,1-trifluoro-2-hydroxy-3-oxopropan-2-yl)-2-methylphenyl)pyrazin-2-yl)-N-methylpicolinamide bistrifluoroacetate], the values for the IC50 in test [1] (setting [7]), in test [2] (setting [8]) and in test [3] (setting [9]) were 100 to 500 nM, 500 to 1000 nM and less than 100 nM, respectively.
As for `Cc1ccc(C(O)(C(N)=O)C(F)(F)F)cc1-c1cnc(N)c(N2CC(=O)N(c3ccc(O)cc3)[C@@H](CO)C2)n1` (stereo partly drawn) [Example 124, 2-(3-(5-amino-6-((R)-3-(hydroxymethyl)-4-(4-hydroxyphenyl)-5-oxopiperazin-1-yl)pyrazin-2-yl)-4-methylphenyl)-3,3,3-trifluoro-2-hydroxypropanamide trifluoroacetate], the values for the IC50 in test [1] (setting [10]), in test [2] (setting [11]) and in test [3] were 100 to 500 nM, 500 to 1000 nM and less than 100 nM, respectively.
As to `Cc1ccc(C(O)(C(N)=O)C(F)(F)F)cc1-c1cnc(N)c(N2CCN(c3ccc(C#N)cc3)CC2)n1` (stereo not drawn) [Example 123, 2-(3-(5-amino-6-(4-(4-cyanophenyl)piperazin-1-yl)pyrazin-2-yl)-4-methylphenyl)-3,3,3-trifluoro-2-hydroxypropanamide trifluoroacetate], the IC50 in test [1] (setting [10]) was less than 100 nM; in test [2] (setting [11]), 100 to 500 nM; in test [3] (setting [12]) it was less than 100 nM.
In the case of `CCCc1nc(-c2cc(C(O)(C(N)=O)C(F)(F)F)ccc2C)cnc1N` (stereo not drawn) [Example 45, 2-(3-(5-amino-6-propylpyrazin-2-yl)-4-methylphenyl)-3,3,3-trifluoro-2-hydroxypropanamide], the IC50 was 100 to 500 nM in test [1] (setting [13]), 100 to 500 nM in test [2] (setting [14]) and less than 100 nM in test [3] (setting [15]).
Turning to `Cc1ccc(C(O)(C(N)=O)C(F)(F)F)cc1-c1cnc(N)c(-c2ccc(CC#N)cc2)n1` (stereo not drawn) [Example 87, 2-(3-(5-amino-6-(4-(cyanomethyl)phenyl)pyrazin-2-yl)-4-methylphenyl)-3,3,3-trifluoro-2-hydroxypropanamide trifluoroacetate], the IC50 is less than 100 nM in test [1] (setting [7]), 100 to 500 nM in test [2] (setting [8]) and less than 100 nM in test [3] (setting [9]).
Take `Cc1ccc(C(O)(C(N)=O)C(F)(F)F)cc1-c1cnc(N)c(-c2cnn(CC3CC3)c2)n1` (stereo not drawn) [Example 86, 2-(3-(5-amino-6-(1-(cyclopropylmethyl)-1H-pyrazol-4-yl)pyrazin-2-yl)-4-methylphenyl)-3,3,3-trifluoro-2-hydroxypropanamide trifluoroacetate]: the IC50 in test [1] (setting [7]), in test [2] (setting [8]) and in test [3] (setting [9]) was less than 100 nM in each case.
As to `Cc1ccc(C(O)(C(N)=O)C(F)(F)F)cc1-c1cnc(N)c(N2CCN(CCC#N)CC2)n1` (stereo not drawn) [Example 125, 2-(3-(5-amino-6-(4-(2-cyanoethyl)piperazin-1-yl)pyrazin-2-yl)-4-methylphenyl)-3,3,3-trifluoro-2-hydroxypropanamide trifluoroacetate], the IC50 is less than 100 nM in test [1]; 100 to 500 nM in test [2] (Homo sapiens, THP-1, read-out: PI3Kγ_THP1_RPS6_ELISA IC50 (nM)); less than 100 nM in test [3].
`CC(=O)NCC(O)(c1ccc(C)c(-c2cnc(N)c(C(=O)NC(C)C)n2)c1)C(F)(F)F` (stereo not drawn) [Example 39, 6-(5-(3-Acetamido-1,1,1-trifluoro-2-hydroxypropan-2-yl)-2-methylphenyl)-3-amino-N-isopropylpyrazine-2-carboxamide trifluoroacetate]: the IC50 was less than 100 nM in test [1] (setting [4]), 100 to 500 nM in test [2] (setting [16]) and less than 100 nM in test [3] (setting [6]).
Turning to `Cc1ccc(C(O)(C(N)=O)C(F)(F)F)cc1-c1cnc(N)c(-c2cnn(C3CCOCC3)c2)n1` (stereo not drawn) [Example 77, 2-(3-(5-amino-6-(1-(tetrahydro-2H-pyran-4-yl)-1H-pyrazol-4-yl)pyrazin-2-yl)-4-methylphenyl)-3,3,3-trifluoro-2-hydroxypropanamide trifluoroacetate], the IC50 in test [1] (setting [7]), in test [2] (setting [8]) and in test [3] (setting [9]) was less than 100 nM throughout.
With `Cc1ccc(C(O)(C(N)=O)C(F)(F)F)cc1-c1cnc(N)c(C#CC(C)C)n1` (stereo not drawn) [Example 49, 2-(3-(5-amino-6-(3-methylbut-1-ynyl)pyrazin-2-yl)-4-methylphenyl)-3,3,3-trifluoro-2-hydroxypropanamide], the IC50 in test [1] (setting [13]) is less than 100 nM; in test [2] (setting [14]), 100 to 500 nM; in test [3] (setting [15]) it was less than 100 nM.
On to `Cc1ccc(C(O)(CNC(=O)CC#N)C(F)(F)F)cc1-c1cnc(N)c(C(=O)NC(C)C)n1` (stereo not drawn) [Example 42, 3-Amino-6-(5-(3-(2-cyanoacetamido)-1,1,1-trifluoro-2-hydroxypropan-2-yl)-2-methylphenyl)-N-isopropylpyrazine-2-carboxamide trifluoroacetate], for which the IC50 was less than 100 nM in test [1] (setting [4]), 100 to 500 nM in test [2] (setting [16]) and less than 100 nM in test [3] (setting [6]).
In the case of `Cc1ccc(C(O)(C(N)=O)C(F)(F)F)cc1-c1cnc(N)c(N2CCN(C(C)(C)C)C(=O)C2)n1` (stereo not drawn) [Example 113, 2-(3-(5-amino-6-(4-tert-butyl-3-oxopiperazin-1-yl)pyrazin-2-yl)-4-methylphenyl)-3,3,3-trifluoro-2-hydroxypropanamide trifluoroacetate], the values for the IC50 in test [1] (setting [10]), in test [2] (setting [11]) and in test [3] (setting [12]) were 100 to 500 nM, 100 to 500 nM and less than 100 nM, respectively.
